# Read-outs that look alike come from different tables or passages of the source.
# Experiments:
# c-Abl kinase = biological target: T1, c-Abl kinase (Homo sapiens, UniProt P00519); experiment: c-Abl protein-tyrosine kinase filter binding assay; format: biochemical
# T1 construct: The His-tagged kinase domain of c-Abl is cloned and expressed in the baculovirus/Sf9 system; His; made in house; host or cells: Sf9 (baculovirus)
# T1 sequence (P00519 242-493 limits assumed): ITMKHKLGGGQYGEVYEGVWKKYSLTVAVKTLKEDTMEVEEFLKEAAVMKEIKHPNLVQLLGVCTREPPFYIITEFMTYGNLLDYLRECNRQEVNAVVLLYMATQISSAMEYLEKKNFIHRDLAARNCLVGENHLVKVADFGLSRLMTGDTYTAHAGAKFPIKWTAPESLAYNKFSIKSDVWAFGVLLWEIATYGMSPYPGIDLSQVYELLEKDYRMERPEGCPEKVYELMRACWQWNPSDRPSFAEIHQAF
# Description: The His-tagged kinase domain of c-Abl is cloned and expressed in the baculovirus/Sf9 system as described by Bhat et al. in J. Biol. Chem. 1997; 272:16170-16175. A protein of 37 kD (c-Abl kinase) is purified by a two-step procedure over a Cobalt metal chelate column followed by an anion exchange column with a yield of 1-2 mg/L of Sf9 cells (Bhat et al., reference cited). The purity of the c-Abl kinase is >90% as judged by SDS-PAGE after Coomassie blue staining. The assay contains (total volume of 30 μL): c-Abl kinase (50 ng), 20 mM Tris.HCl, pH 7.5, 10 mM MgCl2, 10 μM Na3VO4, 1 mM DTT and 0.06 μCi/assay [γ^33 P]-ATP (5 μM ATP) using 30 μg/mL poly-Ala,Glu,Lys,Tyr-6:2:5:1 (Poly-AEKY, Sigma P1152) in the presence of 1% DMSO. Reactions are terminated by adding 10 μL of 250 mM EDTA and 30 μL of the reaction mixture is transferred onto Immobilon-PVDF membrane (Millipore, Bedford, Mass., USA) previously soaked for 5 min with methanol, rinsed with water, then soaked for 5 min with 0.5% H3PO4 and mounted on vacuum manifold with disconnected vacuum source. After spotting all samples, vacuum is connected and each well rinsed with 200 μL 0.5% H3PO4. Membranes are removed and washed on a shaker with 0.5% H3PO4 (4 times) and once with ethanol. Membranes are counted after drying at ambient temperature, mounting in Packard TopCount 96-well frame, and addition of 10 μL/well of Microscint™ (Packard).
# human IGF-IR = biological target: T2, human IGF-IR (Homo sapiens, UniProt P08069); experiment: IGF-1R tyrosine kinase assay, GST-IGF-1R; format: biochemical; conditions: Table 5; read-out: IGF-1R, IC50 class
# T2 construct: expresses the amino acid region 950-1337 of the mature peptide cytoplasmic domain of the human IGF-IR; made in house; host or cells: baculovirus (Bac-to-Bac)
# T2 sequence (P08069 980-1367): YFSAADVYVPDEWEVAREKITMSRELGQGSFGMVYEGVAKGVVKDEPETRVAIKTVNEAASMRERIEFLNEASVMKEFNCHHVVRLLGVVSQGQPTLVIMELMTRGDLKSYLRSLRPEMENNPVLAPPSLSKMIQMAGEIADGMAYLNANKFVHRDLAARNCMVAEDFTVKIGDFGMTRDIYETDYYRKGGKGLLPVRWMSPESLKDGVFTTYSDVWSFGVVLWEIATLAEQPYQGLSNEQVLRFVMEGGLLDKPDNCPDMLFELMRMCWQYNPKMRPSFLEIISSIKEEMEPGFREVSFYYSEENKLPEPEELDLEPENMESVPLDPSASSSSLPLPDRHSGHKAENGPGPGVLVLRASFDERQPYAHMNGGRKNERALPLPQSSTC
# Text: The inhibition of IGF-1R and Ins-R can be determined as follows: The baculovirus donor vector pfbgx3IGFIRcd is used to generate a recombinant baculovirus that expresses the amino acid region 950-1337 of the mature peptide cytoplasmic domain of the human IGF-IR. To generate the cDNA fragment encoding the amino acid region 919-1343 of the intra-cytoplasmic kinase domain of the human insulin receptor, pC5hInsR is used. The fragments of the human IGF-IR and Ins-R are cloned, expressed and small-scale purified as a factor Xa-cleavable glutathione-S-transferase (GST)-fusion protein using the Bac-to-Bac™ system (GIBCO BRL) of recombinant baculovirus generation. Virus containing media is collected from the transfected cell culture and used for infection to increase its titer. Virus containing media obtained after two rounds of infection is used for large-scale protein expression. Cell extracts are prepared and loaded onto a glutathione-Sepharose (Pharmacia) column. After washing, the GST-tagged proteins are then eluted with a glutathione-containing buffer. Purified protein is stored at −70° C. in elution buffer. Tyrosine protein kinase assays with purified GST-IGF-1R and GST-ins-R are carried in a final volume of 30 μl containing 20 mM Tris-HCl, pH 7.6, 10 mM MgCl2, 0.01 mM Na3VO4, 1% DMSO, 1 mM DTT, 3 μg/ml poly(Glu,Tyr) 4:1 and 10 μM ATP (γ-[^33P]-ATP 0.1 μCi). The assay is performed in 96-well plates at ambient temperature for 20 min and terminated by addition of 25 μl 0.05 M EDTA pH 7.0. An aliquot of 40 μl is spotted with a multichannel dispenser on Whatman P81 membranes mounted in a Millipore Microtiter filter manifold connected to a low vacuum source. After elimination of liquid, the membrane is transferred to a sequence of 4 washing baths containing 0.5% H3PO4 and one with EtOH (shaking incubation for 10 min each), dried, mounted onto a Hewlett Packard TopCount manifold added 10 μl Microscint® and counted. Compounds of formula (I) show up to 90% inhibition of Ins-R at 10,000 nM, preferably between 60-90% inhibition. The inhibition of Tek can be determined as follows: The procedure of the expression, purification and assay these kinases has been described. Fabbro et al., Pharmacol. Ther. 82(2-3) 293-301 (1999). In brief, the glutathione S-transferase (GST) gene from the pAcG1 vector (Pharmingen) is excised with EcoRV and EcoRI and inserted into the cloning site of the Fast-Bac baculoviral vector (GIBCO) creating a 5530 bp vector with N-terminal cloning sites derived from the pAcG1 fusion vector (FBG0). The C-terminal cloning site may be any cloning site (from the Fast-Bac vector) downstream of the N-terminal cloning site used. N-terminally GST-fused (pAcG1, Pharmingen) KDR, Flt-1, Flk-1, Tek and PDGFR-β kinase domains are obtained from ProQinase, Freiburg, Germany. Tek is recloned into the FBG1 vector by EcoRI excision and ligation into EcoRI digested FBG1 (FBG1-Tek). The coding sequences for the whole cytoplasmic domain of c-Kit (aa 544-976) and c-Fms (aa 538-972) are amplified by PCR from human uterus and from human bone marrow cDNA libraries (Clontech), respectively. The amplified DNA fragments are fused to GST by cloning them into FBG1 as BamHI-EcoRI insertions, to yield FBG1-c-Kit and FBG1-c-Fms. Tek is recloned into the FBG0 transfer vector by EcoRI excision and ligation into EcoRI digested FBG0 (FBG-Tie2/Tek). FGFR-1 and c-met kinase domains are obtained by PCR from human A431 cells. N-terminal primers contain an overhanging EcoRI site, while C-terminal primers contain a XhoI site to aid cloning into the transfer vectors. After digestion of both the PCR fragments and FBG0 the cleavage products are gel-purified and ligated together to form the kinase constructs (FBG-Met, FBG-FGFR-1).
# [1] = Table 4, read-out: c-abl, activity (IC50 for kinase inhibition)
# [2] = Table 5, read-out: C-abl, IC50 class
SMILES,IC50 (c-Abl kinase; [1]) [µM],IC50 (c-Abl kinase; [2]) [µM],IC50 (human IGF-IR) [µM],melting point [°C]
"CN1CCN(c2ccc(-c3cnn4c(N)c(-c5cccc(O)c5)cnc34)cc2)CC1 [Example 1, 3-{7-Amino-3-[4-(4-methyl-piperazin-1-yl)-phenyl]-pyrazolo[1,5-a]pyrimidin-6-yl}-phenol]",< 10,,,
"Nc1c(-c2cccc(O)c2)cnc2c(-c3cccnc3)cnn12 [Example 46, 3-[7-Amino-3-pyridin-3-yl-pyrazolo[1,5-a]pyrimidin-6-yl]-phenol]",< 10,,,
"COc1ccccc1-c1cnn2c(N)c(-c3cccc(O)c3)cnc12 [Example 48, 3-[7-Amino-3-(2-methoxy-phenyl)-pyrazolo[1,5-a]pyrimidin-6-yl]-phenol]",< 10,,,
"COc1cccc(-c2cnn3c(N)c(-c4cccc(O)c4)cnc23)c1 [Example 60, 3-[7-Amino-3-(3-methoxy-phenyl)-pyrazolo[1,5-a]pyrimidin-6-yl]-phenol]",< 10,,,
"Cc1nc2c(-c3cccc(N4CCN(C)CC4)c3)cnn2c(N)c1-c1cccc(Cl)c1 [Example 72, 6-(3-Chloro-phenyl)-5-methyl-3-[3-(4-methyl-piperazin-1-yl)-phenyl]-pyrazolo[1,5-a]pyrimidin-7-ylamine]",,< 1,> 10,110 to 115
"Cc1nc2c(-c3ccc(N4CCN(C)CC4)cc3)cnn2c(N)c1-c1cccc(Cl)c1 [Example 73, 6-(3-Chloro-phenyl)-5-methyl-3-[4-(4-methyl-piperazin-1-yl)-phenyl]-pyrazolo[1,5-a]pyrimidin-7-ylamine]",,< 1,> 10,113 to 115
"COc1cc(N2CCN(C)CC2)ccc1-c1cnn2c(N)c(-c3cccc(Cl)c3)c(C)nc12 [Example 75, 6-(3-Chloro-phenyl)-3-[2-methoxy-4-(4-methyl-piperazin-1-yl)-phenyl]-5-methyl-pyrazolo[1,5-a]pyrimidin-7-ylamine]",,< 1,,215 to 217
"COc1cc(N2CCN(C)CC2)ccc1-c1cnn2c(N)c(-c3cccc(O)c3)cnc12 [Example 76, 3-{7-Amino-3-[2-methoxy-4-(4-methyl-piperazin-1-yl)-phenyl]-pyrazolo[1,5-a]pyrimidin-6-yl}-phenol]",,,,217 to 220
"CN1CCN(c2ccc(-c3cnn4c(N)c(-c5ccccc5Cl)cnc34)cc2)CC1 [Example 77, 6-(2-Chloro-phenyl)-3-[4-(4-methyl-piperazin-1-yl)-phenyl]-pyrazolo[1,5-a]pyrimidin-7-ylamine]",,,,197 to 200
"CN1CCN(c2cccc(-c3cnn4c(N)c(-c5ccccc5Cl)cnc34)c2)CC1 [Example 78, 6-(2-Chloro-phenyl)-3-[3-(4-methyl-piperazin-1-yl)-phenyl]-pyrazolo[1,5-a]pyrimidin-7-ylamine]",,,,200 to 203
"Cc1nc2c(-c3ccc(N4CCN(C)CC4)cc3)cnn2c(N)c1-c1ccc(F)cc1 [Example 79, 6-(4-Fluoro-phenyl)-5-methyl-3-[4-(4-methyl-piperazin-1-yl)-phenyl]-pyrazolo[1,5-a]pyrimidin-7-ylamine]",,< 1,> 10,289 to 291
"Cc1nc2c(-c3cccc(N4CCN(C)CC4)c3)cnn2c(N)c1-c1ccc(F)cc1 [Example 80, 6-(4-Fluoro-phenyl)-5-methyl-3-[3-(4-methyl-piperazin-1-yl)-phenyl]-pyrazolo[1,5-a]pyrimidin-7-ylamine]",,< 1,> 10,204 to 206
"Cc1nc2c(-c3cccc(N4CCN(C5CCN(C)CC5)CC4)c3)cnn2c(N)c1-c1cccc(Cl)c1 [Example 81, 6-(3-Chloro-phenyl)-5-methyl-3-{3-[4-(1-methyl-piperidin-4-yl)-piperazin-1-yl]-phenyl}-pyrazolo[1,5-a]pyrimidin-7-ylamine]",,< 1,< 1,180 to 185
"Cc1nc2c(-c3cccc(N4CCN(C)CC4)c3)cnn2c(N)c1-c1ccc(F)c(Cl)c1 [Example 82, 6-(3-Chloro-4-fluoro-phenyl)-5-methyl-3-[3-(4-methyl-piperazin-1-yl)-phenyl]pyrazolo[1,5-a]pyrimidin-7-ylamine]",,< 1,> 10,224 to 226
"Cc1nc2c(-c3ccc(N4CCN(C)CC4)cc3)cnn2c(N)c1-c1ccc(F)c(Cl)c1 [Example 83, 6-(3-Chloro-4-fluoro-phenyl)-5-methyl-3-[4-(4-methyl-piperazin-1-yl)-phenyl]-pyrazolo[1,5-a]pyrimidin-7-ylamine]",,< 1,> 10,264 to 265
"COc1ccc(-c2cnn3c(N)c(-c4cccc(Cl)c4)c(CF)nc23)cc1OC [Example 92, 6-(3-Chloro-phenyl)-3-(3,4-dimethoxy-phenyl)-5-fluoromethyl-pyrazolo[1,5-a]pyrimidin-7-ylamine]",,,> 10,228 to 230
"Cc1nc2c(-c3cccc(N4CC[N+](C)([O-])CC4)c3)cnn2c(N)c1-c1ccc(F)cc1 [Example 106, 6-(4-Fluoro-phenyl)-5-methyl-3-[3-(4-methyl-4-oxy-piperazin-1-yl)-phenyl]-pyrazolo[1,5-a]pyrimidin-7-ylamine]",,< 1,> 10,
"Cc1nc2c(-c3cccc([N+]4([O-])CC[N+](C)([O-])CC4)c3)cnn2c(N)c1-c1ccc(F)cc1 (stereo not drawn) [Example 107, 6-(4-Fluoro-phenyl)-5-methyl-3-[3-(4-methyl-1,4-dioxy-piperazin-1-yl)-phenyl]-pyrazolo[1,5-a]pyrimidin-7-ylamine]",,< 1,> 10,

# — US20090099167A1, “Organic compounds” (Novartis Institutes for Biomedical Research, priority 2004, published 2009)
